Reference: US8044045B2, “Indazole-carboxamide compounds as 5-HT4 receptor agonists” (Theravance, Inc., priority 2004, dated 2011)

Assay: Pharmacokinetic study in the rat
Type: in vivo
Procedure: Aqueous solution formulations of test compounds were prepared in 0.1% lactic acid at a pH of between about 5 and about 6. Male Sprague-Dawley rats (CD strain, Charles River Laboratories, Wilmington, Mass.) were dosed with test compounds via intravenous administration (IV) at a dose of 2.5 mg/kg or by oral gavage (PO) at a dose of 5 mg/kg. The dosing volume was 1 mL/kg for IV and 2 mL/kg for PO administration. Serial blood samples were collected from animals pre-dose, and at 2 (IV only), 5, 15, and 30 min, and at 1, 2, 4, 8, and 24 hours post-dose. Concentrations of test compounds in blood plasma were determined by liquid chromatography-mass spectrometry analysis (LC-MS/MS) (MDS SCIEX, API 4000, Applied Biosystems, Foster City, Calif.) with a lower limit of quantitation of 1 ng/mL.
Standard pharmacokinetic parameters were assessed by non-compartmental analysis (Model 201 for IV and Model 200 for PO) using WinNonlin (Version 4.0.1, Pharsight, Mountain View, Calif.). The maximum in the curve of test compound concentration in blood plasma vs. time is denoted Cmax. The area under the concentration vs. time curve from the time of dosing to the last measurable concentration (AUC(0-t)) was calculated by the linear trapezoidal rule. Oral bioavailability (F(%)), i.e. the dose-normalized ratio of AUC(0-t) for PO administration to AUC(0-t) for IV administration, was calculated as: F(%)=AUCPO/AUCIV×DoseIV/DosePO×100%

[1] = male Sprague-Dawley rats, blood plasma, PO 5 mg/kg

CC(=O)N1CCN(CCN2[C@@H]3CC[C@H]2CC(NC(=O)c2nn(C(C)C)c4ccccc24)C3)CC1 (stereo partly drawn) [Example 1, 1-isopropyl-1H-indazole-3-carboxylic acid {(1S,3R,5R)-8-[2-(4-acetylpiperazin-1-yl)ethyl]-8-azabicyclo[3.2.1]oct-3-yl}amide]
AUC(0-t) [1]: 0.73 µg·h/mL
Cmax [1]: 0.25 µg/mL
oral bioavailability (F(%)) (rat, PO 5 mg/kg versus IV 2.5 mg/kg, dose-normalized AUC(0-t) ratio): about 100%
